Data as given in ChEMBL document CHEMBL4627274, “Optimized plant compound with potent anti-biofilm activity across gram-negative species” (Bioorg Med Chem, 2020).

How the values were obtained:
Type in all cases: functional
Pseudomonas aeruginosa = assay: Inhibition of swarming motility of Pseudomonas aeruginosa HONKR at 16 ug/mL incubated for 16 to 20 hrs relative to control
Escherichia coli [1] = assay: Inhibition of swarming motility of Escherichia coli PY31 at 16 ug/mL incubated for 16 to 20 hrs relative to control
Escherichia coli [2] = assay: Antibiofilm activity against Escherichia coli UTI89 incubated for 2 days at 23 degC followed by 1 day incubation at RT

Structure (SMILES)	inhibition at 16 µg/mL (Pseudomonas aeruginosa)	inhibition at 16 µg/mL (Escherichia coli [1])	MBIC50 (Escherichia coli [2])
Cn1ccnc1[C@@H]1C[C@]2(C)[C@H]3CC=C4[C@@H]5CC(C)(C)CC[C@]5(C(=O)O)CC[C@@]4(C)[C@]3(C)CC[C@H]2C(C)(C)[C@H]1O	< 20%	80%	>=32 ug ml-1
CC1(C)CC[C@]2(C(=O)O)CC[C@]3(C)C(=CC[C@@H]4[C@@]5(C)Cc6cnc(N)nc6C(C)(C)[C@@H]5CC[C@]43C)[C@@H]2C1	80%	90%	>=32 ug ml-1
C[C@H]1[C@H](C)CC[C@]2(C(=O)O)CC[C@]3(C)C(=CC[C@@H]4[C@@]5(C)C[C@@H](O)[C@H](O)[C@@](C)(CO)[C@@H]5CC[C@]43C)[C@H]12 [ASIATIC ACID]	70%	–	–
C[C@H]1[C@H](C)CC[C@]2(C(=O)O)CC[C@]3(C)C(=CC[C@@H]4[C@@]5(C)[C@H](O)[C@@H](O)[C@@H](O)[C@](C)(CO)[C@@H]5CC[C@]43C)[C@H]12	80%	–	–
CNC(=O)[C@@H]1C[C@]2(C)[C@H]3CC=C4[C@@H]5CC(C)(C)CC[C@]5(C(=O)O)CC[C@@]4(C)[C@]3(C)CC[C@H]2C(C)(C)[C@H]1O	< 20%	< 20%	4 µg/mL
CNC(=N)[C@@H]1C[C@]2(C)[C@H]3CC=C4[C@@H]5CC(C)(C)CC[C@]5(C(=O)O)CC[C@@]4(C)[C@]3(C)CC[C@H]2C(C)(C)[C@H]1O	< 20%	30%	>=32 ug ml-1
CC1(C)CC[C@]2(C(=O)O)CC[C@]3(C)C(=CC[C@@H]4[C@@]5(C)C[C@@H](C6=NCCN6)[C@H](O)C(C)(C)[C@@H]5CC[C@]43C)[C@@H]2C1	< 20%	> 90%	>=32 ug ml-1
C[C@H]1[C@H](C)CC[C@]2(C(=O)O)CC[C@]3(C)C(=CC[C@@H]4[C@@]5(C)C[C@@H](O)[C@@H](O)C(C)(C)[C@@H]5CC[C@]43C)[C@H]12 [PYGENIC ACID A]	> 90%	–	–
C[C@H]1[C@H](C)CC[C@]2(C(=O)O)CC[C@]3(C)C(=CC[C@@H]4[C@@]5(C)C[C@@H](O)[C@@H](O)[C@](C)(CO)[C@@H]5CC[C@]43C)[C@H]12	90%	–	–
C=C(C)[C@@H]1CC[C@]2(C(=O)O)CC[C@]3(C)[C@H](CC[C@@H]4[C@@]5(C)CC[C@H](O)C(C)(C)[C@@H]5CC[C@]43C)[C@@H]12 [BETULINIC ACID]	80%	–	–
C[C@H]1[C@H](C)CC[C@]2(C(=O)O)CC[C@]3(C)C(=CC[C@@H]4[C@@]5(C)CC[C@H](O)C(C)(C)[C@@H]5CC[C@]43C)[C@H]12 [URSOLIC ACID]	> 90%	–	–
CC1(C)CC[C@]2(C(=O)O)CC[C@]3(C)C(=CC[C@@H]4[C@@]5(C)C[C@@H](C6=NCCCN6)[C@H](O)C(C)(C)[C@@H]5CC[C@]43C)[C@@H]2C1	< 20%	60%	4 µg/mL
CC1(C)CC[C@]2(C(=O)O)CC[C@]3(C)C(=CC[C@@H]4[C@@]5(C)C[C@@H](c6ncc[nH]6)[C@H](O)C(C)(C)[C@@H]5CC[C@]43C)[C@@H]2C1	< 20%	> 90%	16 µg/mL
CN1C[C@@H]2C[C@]3(C)[C@H]4CC=C5[C@@H]6CC(C)(C)CC[C@]6(C(=O)O)CC[C@@]5(C)[C@]4(C)CC[C@H]3C(C)(C)[C@H]2OC1=O	< 20%	< 20%	>=32 ug ml-1
CN1CCN=C1[C@@H]1C[C@]2(C)[C@H]3CC=C4[C@@H]5CC(C)(C)CC[C@]5(C(=O)O)CC[C@@]4(C)[C@]3(C)CC[C@H]2C(C)(C)[C@H]1O	> 20%	< 20%	>=32 ug ml-1
CN(C)CCNC(=O)[C@@H]1C[C@]2(C)[C@H]3CC=C4[C@@H]5CC(C)(C)CC[C@]5(C(=O)O)CC[C@@]4(C)[C@]3(C)CC[C@H]2C(C)(C)[C@H]1O	< 20%	30%	4 µg/mL
CC1(C)CC[C@]2(C(=O)O)CC[C@]3(C)C(=CC[C@@H]4[C@@]5(C)C[C@@H](C(=O)N6CCOCC6)[C@H](O)C(C)(C)[C@@H]5CC[C@]43C)[C@@H]2C1	< 20%	< 20%	4 µg/mL
CN(C)C[C@@H]1C[C@]2(C)[C@H]3CC=C4[C@@H]5CC(C)(C)CC[C@]5(C(=O)O)CC[C@@]4(C)[C@]3(C)CC[C@H]2C(C)(C)[C@H]1O	< 20%	70%	>=32 ug ml-1
CC(C)CN(C)C[C@@H]1C[C@]2(C)[C@H]3CC=C4[C@@H]5CC(C)(C)CC[C@]5(C(=O)O)CC[C@@]4(C)[C@]3(C)CC[C@H]2C(C)(C)[C@H]1O	< 20%	90%	>=32 ug ml-1
CC1(C)CC[C@]2(C(=O)O)CC[C@]3(C)C(=CC[C@@H]4[C@@]5(C)C[C@@H](C(=O)NC6CC6)[C@H](O)C(C)(C)[C@@H]5CC[C@]43C)[C@@H]2C1	< 20%	70%	4 µg/mL
C=C(C)[C@@H]1CC[C@]2(C)CC[C@]3(C)[C@H](CC[C@@H]4[C@@]5(C)CC[C@H](O)C(C)(C)[C@@H]5CC[C@]43C)[C@@H]12 [LUPEOL]	< 20%	–	–
CCCN(C)C(=O)[C@@H]1C[C@]2(C)[C@H]3CC=C4[C@@H]5CC(C)(C)CC[C@]5(C(=O)O)CC[C@@]4(C)[C@]3(C)CC[C@H]2C(C)(C)[C@H]1O	< 20%	50%	4 µg/mL
CC1(C)CC[C@]2(C(=O)O)CC[C@]3(C)C(=CC[C@@H]4[C@@]5(C)C[C@@H](C6=NCCO6)[C@H](O)C(C)(C)[C@@H]5CC[C@]43C)[C@@H]2C1	< 20%	< 20%	8 µg/mL
CC(=O)N(C(C)=O)c1ncc2c(n1)C(C)(C)[C@@H]1CC[C@]3(C)[C@H](CC=C4[C@@H]5CC(C)(C)CC[C@]5(C(=O)O)CC[C@]43C)[C@@]1(C)C2	90%	70%	8 µg/mL
CC1(C)CC[C@]2(C(=O)O)CC[C@]3(C)C(=CC[C@@H]4[C@@]5(C)Cc6c(O)nc(N)nc6C(C)(C)[C@@H]5CC[C@]43C)[C@@H]2C1	90%	> 90%	>=32 ug ml-1
C[C@H]1[C@H](C)CC[C@]2(C(=O)O)CC[C@]3(C)C(=CC[C@@H]4[C@@]5(C)C[C@@H](O)[C@H](O)[C@@](C)(CO)[C@@H]5[C@H](O)C[C@]43C)[C@H]12 [MADECASSIC ACID]	90%	–	–
COC(=O)[C@]12CCC(C)(C)C[C@H]1C1=CC[C@@H]3[C@@]4(C)CC[C@H](O)C(C)(C)[C@@H]4CC[C@@]3(C)[C@]1(C)CC2 [METHYL OLEANOLATE]	30%	–	–
C[C@H]1[C@H](C)CC[C@]2(CO)CC[C@]3(C)C(=CC[C@@H]4[C@@]5(C)CC[C@H](O)C(C)(C)[C@@H]5CC[C@]43C)[C@H]12 [UVAOL]	< 20%	–	–
